Consider two compounds from US10851092B2, “Pyridine compound” (Daiichi Sankyo Company, Limited, priority 2016, dated 2020).

Each structure is given as a SMILES string. Like-named read-outs stand apart in the source and are kept apart here.

The subject of assay [1] is phosphorylated RET (ETV-RET) in Ba/F3-RET tumors. Kind of assay: One shot PKPD analysis, Ba/F3-RET tumors. The class given is in vivo, mice. The method, then: Murine pro-B cells, Ba/F3, expressing fusion protein of ets variant 6 (ETV)-RET and ETV-RET-V804L were constructed by Daiichi Sankyo RD Novare Co., Ltd., and cultivated in RPM11640 medium (Thermo Fisher Scientific K.K.) supplemented with 10% (v/v) heat-inactivated fetal bovine serum (FBS, GE Healthcare) and 1.5 µg/mL puromycin in a CO2 incubator that was set at 37° C. with a 5% CO2 atmosphere. The cells were suspended in DPBS and inoculated subcutaneously into mice at 1.0×10^7 cells per mouse. After the tumor had reached a size of 100 to 200 mm^3, the mice were randomized based on tumor diameter and the test compounds (10 mg/kg, Compound 229 or Example 3) which were dissolved in 1% (w/v) hydroxypropyl methylcellulose solution were administrated orally. Control group was administrated with 1% (w/v) hydroxypropyl methylcellulose solution. […] Protein concentration of tumor lysate was quantified by colorimetric reagent (Thermo Fisher Scientific K.K.) and all were diluted to the same concentration by lysis buffer. […] The chemiluminescence reaction of HRP and the substrate (Pierce ECL Plus Western Blotting Substrate, Cat. No. 32132, Thermo Fisher Scientific K.K.) was detected by an image scanner Typhoon 9400 (GE Healthcare). Signal intensities fo phosphorylated RET (pRET) and RET were quantified and calculated as following methods. […]

For assay [2], the target named is RET-wild type (Homo sapiens (Human), UniProt P07949). Kind of assay: Evaluation of RET kinase inhibiting activity (cell system), Ba/F3 cells overexpressing Myc tagged RET. The class given is cell-based. The settings on record: Ba/F3, compound 2 hours, read-out: RET-wild type IC50. On the procedure: (§1) Thereafter, 1 mL of Cell Lysis Buffer (Cell signaling technology, #9803), a single tablet of Phosphatase inhibitor (Roche, #04906837001), and a single tablet of Protease inhibitor (Roche, #0469312400) were added to 9 mL of MilliQ, and 20 ul of the obtained mixture was then added to each well. The mixture thus obtained was placed on ice for 20 minutes, so that the cells were lysed. A 5-ul aliquot was taken from the cell lysate, and thereafter, 64 nl of Myc antibody (Cell signaling technology, #3946) and Streptavidin Donor beads in an equal amount of 102 nl of P-Tyr-100 Acceptor beads included in the Alpha Screen Phosphotyrosine (P-Tyr-100) assay kit (Perkin Elmer, #6760620C) were added to the aliquot in accordance with the instruction manual included with the aforementioned assay kit. The obtained mixture was reacted at room temperature overnight, and a RET kinase inhibiting activity rate was then measured using Envision.
Sequence of RET-wild type (P07949 29-1114): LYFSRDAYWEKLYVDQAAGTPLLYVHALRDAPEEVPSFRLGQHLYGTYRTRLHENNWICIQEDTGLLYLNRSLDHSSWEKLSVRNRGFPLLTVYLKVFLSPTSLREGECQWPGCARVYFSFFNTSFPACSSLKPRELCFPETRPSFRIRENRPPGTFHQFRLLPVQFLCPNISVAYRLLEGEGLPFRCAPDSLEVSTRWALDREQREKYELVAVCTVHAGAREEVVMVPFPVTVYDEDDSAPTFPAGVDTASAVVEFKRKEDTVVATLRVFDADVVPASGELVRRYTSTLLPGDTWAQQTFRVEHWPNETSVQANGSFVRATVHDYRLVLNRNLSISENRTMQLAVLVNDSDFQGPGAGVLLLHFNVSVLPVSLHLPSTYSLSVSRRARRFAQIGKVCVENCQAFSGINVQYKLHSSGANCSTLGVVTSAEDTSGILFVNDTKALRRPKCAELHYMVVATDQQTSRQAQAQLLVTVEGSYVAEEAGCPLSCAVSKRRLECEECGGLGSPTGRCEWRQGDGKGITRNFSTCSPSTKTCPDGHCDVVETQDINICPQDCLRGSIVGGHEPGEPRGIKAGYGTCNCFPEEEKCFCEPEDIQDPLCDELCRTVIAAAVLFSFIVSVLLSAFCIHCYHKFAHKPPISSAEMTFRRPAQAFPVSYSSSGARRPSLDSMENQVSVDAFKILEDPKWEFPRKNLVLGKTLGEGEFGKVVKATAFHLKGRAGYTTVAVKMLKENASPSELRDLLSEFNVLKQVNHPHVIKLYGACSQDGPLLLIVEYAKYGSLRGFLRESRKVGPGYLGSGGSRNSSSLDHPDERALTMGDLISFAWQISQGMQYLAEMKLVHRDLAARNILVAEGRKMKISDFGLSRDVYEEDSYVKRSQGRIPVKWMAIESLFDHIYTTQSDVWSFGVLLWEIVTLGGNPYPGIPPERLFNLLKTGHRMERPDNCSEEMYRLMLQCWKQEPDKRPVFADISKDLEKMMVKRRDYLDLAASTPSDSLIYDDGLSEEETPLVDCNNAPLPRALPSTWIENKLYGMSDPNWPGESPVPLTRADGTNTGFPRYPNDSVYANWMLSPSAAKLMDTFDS

The target in assay [3] is RET-Gatekeeper mutation (V804L) recombinant protein (Homo sapiens (Human), UniProt P07949, V804L). Kind of assay: Evaluation of RET kinase inhibiting activity (cell-free system), gatekeeper mutant. The class given is biochemical. On the procedure: (§2) 19 uL of the RET kinase solution was added to each of lines A to P of a 384-well plate, and thereafter, the test compound at each concentration was added to lines C to N, and further, 1 uL of dimethyl sulfoxide (hereinafter referred to as DMSO) was added to each of lines A, B, O and P. Thereafter, the obtained mixtures were each preincubated at room temperature for 20 minutes. Furthermore, a substrate solution A containing ATP (final concentration: 1 mM) and a substrate solution B containing no ATP, both in addition to a reaction buffer and FL-Peptide 22 (PerkinElmer, #760366, final concentration: 1.5 uM) were produced. The substrate solution A was added in an amount of 5 uL to lines B to 0, whereas the substrate solution B was added in an amount of 5 uL to lines A and P. The obtained mixtures were each incubated at 28° C. for 45 minutes. A reaction termination solution (100 mM HEPES (pH 7.4), 0.015% Briji-35, 40 mM EDTA, and 0.1% Coating Reagent 3) was added in an amount of 40 ul to the reaction mixture, so as to terminate the reaction.
Sequence of RET-Gatekeeper mutation (V804L) recombinant protein (P07949 29-1114 V804L): as the sequence (P07949 29-1114) above, with V776L counted along it
(§3) Using EZ Reader II (Perkin Elmer), a substrate peptide was separated from a phosphorylated peptide in the reaction solution, and the product ratio (P/(P+S)) calculated from the peak (S) of the substrate peptide and the peak (P) of the phosphorylated peptide was used for evaluation. The inhibition of the test compound having each concentration was obtained by the following formula (automatically calculated using the software of EZ Reader II System). Inhibition (%)=100×(1−Ci/Co) (a) Ci: Conversion rate of a reaction of a test compound with substrate solution A−conversion rate of a reaction of DMSO with substrate solution B Co: Conversion rate of a reaction of DMSO with substrate solution A−conversion rate of a reaction of DMSO with substrate solution B
(§4) Based on the inhibition rates of the test compound at 12 different concentrations according to the formula (a), a 4-parameter logistic regression curve was drawn. At this time, the 4-parameter logistic regression equation is expressed as follows. Inhibition (%)=Bottom+(Top−Bottom)/(1+(X/IC50)^^slope) (b) Top: Upward asymptote Slope: Slope parameter IC50: Value X of (Top+Bottom)/2 Bottom: Downward asymptote X: Concentration of test compound
(§5) First, any given initial values are inputted into Top, Slope, IC50, Bottom (Top=100, Slope=−1, IC50=approx. IC50, and Bottom=0), so that a regression curve was drawn. Subsequently, a least-squares method was executed to the sum of squares of a difference between the measured value and the estimated value obtained from formula (b) to calculate the coefficient of the 4-parameter logistic regression equation, so as to calculate IC50.

The target in assay [4] is RET recombinant protein (RET-wild type) (Homo sapiens (Human), UniProt P07949). Kind of assay: Evaluation of RET kinase inhibiting activity (cell-free system), mobility shift assay. The class given is biochemical. On the procedure: as §2, §3, §4, §5
Sequence of RET recombinant protein (RET-wild type) (P07949 29-1114): as the sequence (P07949 29-1114) above
In assay [5] the target is RET-V804L (Homo sapiens (Human), UniProt P07949, V804L). The assay is described as follows: Evaluation of RET kinase inhibiting activity (cell system), Ba/F3 cells overexpressing RET (V804L) mutant. To be noted: Ba/F3, compound 2 hours. The class given is cell-based. On the procedure:
as §1

Assay [6] deals with non-small cell lung cancer cell line LC-2/ad having a CCDC6-RET fusion gene. Kind of assay: Cell growth inhibitory activity, non-small cell lung cancer cell line LC-2/ad. The class given is cell-based. The settings on record: Homo sapiens, 216 h; LC-2/ad cells, 9 days, CellTiter-Glo. On the procedure: The cell growth inhibitory activity of the test compound on the non-small cell lung cancer cell line LC-2/ad having a CCDC6-RET fusion gene (RIKEN, J Thorac Oncol. 2012 December, 7(12), 1872-6) was measured.
LC-2/ad cells were seeded on a 96-well plate at a cell density of 5,000 cells per well, and then cultured at 37° C. in the presence of 5% CO2 overnight in a medium prepared by mixing RPMI-1640 containing 15% FBS and 25 mM HEPES with Ham's F12 Mixture at a mixing ratio of 1:1. Thereafter, the test compound was diluted, and then added to the 96-well plate. As a negative control, dimethyl sulfoxide (hereinafter referred to as DMSO) was added. The obtained mixture was cultured at 37° C. in the presence of 5% CO2 for 9 days, and thereafter, a cell count measuring reagent CellTiter-Glo® Luminescent Cell Viability Assay (Promega, # G7571) was added to the culture, followed by stirring the mixture. Thereafter, using a luminescence measurement device Envision, the luminescence intensity was measured. The measurement value of a well to which only the medium had been added was define as a survival rate of 0%, and the measurement value of a well to which DMSO had been added was defined as a survival rate of 100%. The survival rate of the LC-2/ad cells in the presence of each concentration of the test compound was calculated.
Background: Cellular ATP, detected with luciferase, serves as a proxy for viable cell number.

The subject of assay [7] is thyroid gland cancer cell line TT having RET activating mutation (C634W). The assay is described as follows: Cell growth inhibitory activity, thyroid gland cancer cell line TT. The class given is cell-based. The settings on record: Homo sapiens, 216 h; TT cells, 9 days, CellTiter-Glo. On the procedure: The cell growth inhibitory activity of the test compound on the thyroid gland cancer cell line TT having RET activating mutation (C634W) (Biochemical and Biophysical Research Communications. 1995 Feb. 27 (207), 1022-1028) was measured.
TT cells were seeded on a 96-well plate at a cell density of 5,000 cells per well, and were then cultured at 37° C. in the presence of 5% CO2 overnight in an F-12K nutrient mixture medium containing 10% FBS. Thereafter, the compound was diluted, and then added to the 96-well plate. As a negative control, dimethyl sulfoxide (hereinafter referred to as DMSO) was added. The obtained mixture was cultured at 37° C. in the presence of 5% CO2 for 9 days, and thereafter, a cell count measuring reagent CellTiter-Glo® Luminescent Cell Viability Assay was added to the culture, followed by stirring the mixture. Thereafter, using a luminescence measurement device Envision (Perkin Elmer), the luminescence intensity was measured. The measurement value of a well to which only the medium had been added was define as a survival rate of 0%, and the measurement value of a well to which DMSO had been added was defined as a survival rate of 100%. The survival rate of the TT cells in the presence of each concentration of the test compound was calculated.

[8] abbreviates: cell-free system, ATP 1 mM, read-out: RET-V804L IC50.
[9] abbreviates: cell-free system, ATP 1 mM, read-out: RET-wild type IC50.

Sequence of RET-V804L (P07949 29-1114 V804L): as the sequence (P07949 29-1114) above, with V776L counted along it

On to `COc1cc2cc(-c3ccc(CC(=O)Nc4cc(C(C)(C)C(F)(F)F)no4)cn3)cnc2cc1OC` [Example 3, 2-[6-(6,7-Dimethoxyquinolin-3-yl)pyridin-3-yl]-N-[3-(1,1,1-trifluoro-2-methylpropan-2-yl)-1,2-oxazol-5-yl]acetamide], for which the “inhibition of pRET in Ba/F3-RET tumors” value in assay [1] (10 mg/kg oral) was “clearly inhibited”. Also, the “Relative phosphorylation of RET (%) in Ba/F3-RET tumors” value in assay [1] (Dose: 10 mg/kg oral, six hours after administration, relative to vehicle) is reported as 6%. Moreover, the IC50 in assay [2] turned out to be 4 nM; in assay [3] (setting [8]), 6.3 nM; in assay [3] (non-cell system, read-out: Biochemical assay (non-cell system) IC50 (nM) RET-V804L), 6.3 nM; in assay [4] (setting [9]), 4.6 nM; in assay [4] (non-cell system, read-out: Biochemical assay (non-cell system) IC50 (nM) RET-WT), 4.6 nM; in assay [5], 15 nM.
For `COc1cc2cc(-c3ccc(CC(=O)Nc4cc(C(C)(C)C(F)(F)F)n[nH]4)cn3)cnc2cc1OC` [Example 5, 2-[6-(6,7-Dimethoxyquinolin-3-yl)pyridin-3-yl]-N-[3-(1,1,1-trifluoro-2-methylpropan-2-yl)-1H-pyrazol-5-yl]acetamide], the IC50 in assay [2] was found to be 10 nM; in assay [3] (setting [8]), 2.7 nM; in assay [6], 82 nM; in assay [4] (setting [9]), 2.2 nM; in assay [5], 15 nM; in assay [7], 17 nM.

A word on the IC50: it is the concentration needed to halve the response being measured.
